Test results published in US9750753B1, “Method of treating diseases associated with LRRK2 mutation using hexachlorophene” (University of South Florida, priority 2014, dated 2017).
Entries after “also recorded” stand apart in the source; their conditions may differ.

Legend:
rats [1] = conditions: cited from earlier work; for protection from toxicity induced by B10: pre-treatment prior to administration of B10, rats
[2] = biological target: T1, wild-type human LRRK2 protein (Homo sapiens, UniProt Q5S007); assay: Western blot of overexpressed wild-type LRRK2 in transfected HeLa cells; format: cell-based
T1 construct: expressed in transfected cells; host or cells: HeLa
Procedure: (§1) HeLa cells overexpressing wild-type or mutant human LRRK2 protein and N9 cells expressing endogenous LRRK2 protein were treated with hexachlorophene (labeled as B10 in FIGS. 1 and 2) for 24 hours.
(§2) HeLa cells were grown in DMEM with 10% FBS and 1% penicillin and streptomycin. Cells were transfected with constructs for LRRK2 and the G2019S mutant using Lipofectamine 2000. HeLa cells were used due to the ease of transfection with LRRK2 and its mutants.
(§3) Samples were harvested by using MPER mammalian extraction buffer (Pierce, Thermo Scientific) containing protease and phosphatase inhibitors. After protein estimation using a BCA kit (Pierce, Thermo Scientific), equal amounts of protein from each sample was subjected to gel electrophoresis and western blotting. Phospho (p-) and Total (T-) LRRK2 (abcam) and GAPDH (Meridian Life Sciences) antibodies were used to detect phospho and total LRRK2 and GAPDH, respectively. Analysis of changes in the LRRK2 level was performed using Scion Image software.

mutant (G2019S) LRRK2 = biological target: T2, mutant (G2019S) LRRK2 (Homo sapiens, UniProt Q5S007, G2019S); assay: Western blot of overexpressed mutant (G2019S) LRRK2 in transfected HeLa cells; format: cell-based; conditions: 1 μM, 24 hours, vs vehicle DMSO control
T2 construct: expressed in transfected cells; host or cells: HeLa
Procedure: as §1, §2, §3

synuclein = assay: Synuclein level in HeLa cells (selectivity control); format: cell-based; conditions: 1 μM
endogenous LRRK2 protein = biological target: T3, endogenous LRRK2 protein (Mus musculus, UniProt Q5S006); assay: Western blot of endogenous LRRK2 in N9 cells; format: cell-based; conditions: 1 μM, 24 hours
T3 construct: N9 cells were used because they express high levels of endogenous LRRK2; endogenous in cells; host or cells: N9
Procedure: as §1
N9 cells were grown in DMEM supplemented with 10% FBS, 1% penicillin and streptomycin, and 2% L-glutamine. N9 cells were used because they express high levels of endogenous LRRK2. They are very difficult to transfect and were only used to study the effect of hexachlorophene on wild-type LRRK2.
as §3

rats [3] = conditions: oral; cited from earlier work
[4] = dose of about 10 mg/kg, transgenic TDP43 mouse model; cited from earlier work
[5] = system: Wnt-β-catenin signaling pathway; conditions: B lymphoma cells; cited from earlier work
amyloid beta (Aβ) = amyloid beta (Aβ) (Homo sapiens, UniProt P05067); conditions: cited from earlier work
[6] = system: primary neuronal cultures; conditions: cited from earlier work
LRRK2 = conditions: cited from earlier work

T3 sequence (Q5S006 whole entry): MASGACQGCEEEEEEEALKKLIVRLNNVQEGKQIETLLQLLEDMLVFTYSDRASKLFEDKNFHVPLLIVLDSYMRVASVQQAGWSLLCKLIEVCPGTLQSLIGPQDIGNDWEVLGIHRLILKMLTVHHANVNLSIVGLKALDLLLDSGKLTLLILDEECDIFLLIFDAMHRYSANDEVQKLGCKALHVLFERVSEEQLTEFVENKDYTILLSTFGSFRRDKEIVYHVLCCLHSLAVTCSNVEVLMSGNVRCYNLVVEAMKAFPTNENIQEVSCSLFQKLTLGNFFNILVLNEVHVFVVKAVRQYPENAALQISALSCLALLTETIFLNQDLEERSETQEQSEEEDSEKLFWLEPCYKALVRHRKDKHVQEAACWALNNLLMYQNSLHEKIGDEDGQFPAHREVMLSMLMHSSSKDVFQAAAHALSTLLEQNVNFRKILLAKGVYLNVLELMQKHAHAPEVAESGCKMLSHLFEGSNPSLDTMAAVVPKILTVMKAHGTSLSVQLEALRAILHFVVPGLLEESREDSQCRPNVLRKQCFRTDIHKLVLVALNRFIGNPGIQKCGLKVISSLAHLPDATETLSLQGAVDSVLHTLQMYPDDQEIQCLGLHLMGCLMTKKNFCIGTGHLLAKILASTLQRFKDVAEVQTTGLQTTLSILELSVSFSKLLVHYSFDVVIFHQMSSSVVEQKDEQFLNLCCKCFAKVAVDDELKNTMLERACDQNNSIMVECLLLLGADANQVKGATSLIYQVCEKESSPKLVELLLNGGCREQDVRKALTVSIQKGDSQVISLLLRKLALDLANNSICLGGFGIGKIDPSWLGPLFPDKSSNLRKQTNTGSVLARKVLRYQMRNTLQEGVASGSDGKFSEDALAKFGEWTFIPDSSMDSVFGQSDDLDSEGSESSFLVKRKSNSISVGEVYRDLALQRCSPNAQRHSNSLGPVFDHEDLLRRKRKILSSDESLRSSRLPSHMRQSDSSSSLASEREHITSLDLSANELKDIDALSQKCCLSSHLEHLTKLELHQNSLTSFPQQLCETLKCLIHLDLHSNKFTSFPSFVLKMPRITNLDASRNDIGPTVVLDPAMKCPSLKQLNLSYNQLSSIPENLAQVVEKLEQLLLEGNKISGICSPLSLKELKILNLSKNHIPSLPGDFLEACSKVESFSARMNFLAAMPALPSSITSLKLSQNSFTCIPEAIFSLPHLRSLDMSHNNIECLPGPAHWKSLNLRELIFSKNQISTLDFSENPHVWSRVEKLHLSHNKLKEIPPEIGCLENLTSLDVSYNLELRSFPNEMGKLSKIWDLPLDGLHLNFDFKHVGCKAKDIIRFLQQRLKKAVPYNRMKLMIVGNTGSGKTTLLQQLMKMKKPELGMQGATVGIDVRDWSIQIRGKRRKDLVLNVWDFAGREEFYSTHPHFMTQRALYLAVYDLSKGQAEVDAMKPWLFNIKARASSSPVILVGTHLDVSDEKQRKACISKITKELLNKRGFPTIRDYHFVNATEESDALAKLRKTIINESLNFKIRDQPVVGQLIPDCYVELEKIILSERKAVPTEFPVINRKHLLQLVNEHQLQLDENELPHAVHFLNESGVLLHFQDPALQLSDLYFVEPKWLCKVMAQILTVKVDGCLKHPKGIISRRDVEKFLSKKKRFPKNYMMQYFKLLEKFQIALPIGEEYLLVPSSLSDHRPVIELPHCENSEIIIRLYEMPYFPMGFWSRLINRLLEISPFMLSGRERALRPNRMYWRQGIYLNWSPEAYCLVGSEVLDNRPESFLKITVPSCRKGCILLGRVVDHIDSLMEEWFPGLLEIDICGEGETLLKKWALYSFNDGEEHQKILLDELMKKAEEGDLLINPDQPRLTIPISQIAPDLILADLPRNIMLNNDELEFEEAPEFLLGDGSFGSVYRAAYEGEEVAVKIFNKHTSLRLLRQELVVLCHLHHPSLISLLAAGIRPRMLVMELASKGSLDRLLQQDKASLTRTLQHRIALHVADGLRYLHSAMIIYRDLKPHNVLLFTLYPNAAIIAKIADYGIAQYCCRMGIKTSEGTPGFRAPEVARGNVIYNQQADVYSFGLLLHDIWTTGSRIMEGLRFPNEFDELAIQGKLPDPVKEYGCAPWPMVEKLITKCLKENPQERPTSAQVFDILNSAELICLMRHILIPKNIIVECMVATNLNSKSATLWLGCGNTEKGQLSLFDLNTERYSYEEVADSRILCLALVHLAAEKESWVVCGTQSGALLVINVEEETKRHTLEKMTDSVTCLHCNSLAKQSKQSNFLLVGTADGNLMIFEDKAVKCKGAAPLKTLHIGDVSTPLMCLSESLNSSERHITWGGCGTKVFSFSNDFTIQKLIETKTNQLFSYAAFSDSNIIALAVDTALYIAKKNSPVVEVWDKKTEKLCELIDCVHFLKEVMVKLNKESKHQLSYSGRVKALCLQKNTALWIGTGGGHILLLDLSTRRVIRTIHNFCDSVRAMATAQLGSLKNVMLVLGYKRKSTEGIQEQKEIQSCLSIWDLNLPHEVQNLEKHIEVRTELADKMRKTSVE
T1 sequence (Q5S007 whole entry): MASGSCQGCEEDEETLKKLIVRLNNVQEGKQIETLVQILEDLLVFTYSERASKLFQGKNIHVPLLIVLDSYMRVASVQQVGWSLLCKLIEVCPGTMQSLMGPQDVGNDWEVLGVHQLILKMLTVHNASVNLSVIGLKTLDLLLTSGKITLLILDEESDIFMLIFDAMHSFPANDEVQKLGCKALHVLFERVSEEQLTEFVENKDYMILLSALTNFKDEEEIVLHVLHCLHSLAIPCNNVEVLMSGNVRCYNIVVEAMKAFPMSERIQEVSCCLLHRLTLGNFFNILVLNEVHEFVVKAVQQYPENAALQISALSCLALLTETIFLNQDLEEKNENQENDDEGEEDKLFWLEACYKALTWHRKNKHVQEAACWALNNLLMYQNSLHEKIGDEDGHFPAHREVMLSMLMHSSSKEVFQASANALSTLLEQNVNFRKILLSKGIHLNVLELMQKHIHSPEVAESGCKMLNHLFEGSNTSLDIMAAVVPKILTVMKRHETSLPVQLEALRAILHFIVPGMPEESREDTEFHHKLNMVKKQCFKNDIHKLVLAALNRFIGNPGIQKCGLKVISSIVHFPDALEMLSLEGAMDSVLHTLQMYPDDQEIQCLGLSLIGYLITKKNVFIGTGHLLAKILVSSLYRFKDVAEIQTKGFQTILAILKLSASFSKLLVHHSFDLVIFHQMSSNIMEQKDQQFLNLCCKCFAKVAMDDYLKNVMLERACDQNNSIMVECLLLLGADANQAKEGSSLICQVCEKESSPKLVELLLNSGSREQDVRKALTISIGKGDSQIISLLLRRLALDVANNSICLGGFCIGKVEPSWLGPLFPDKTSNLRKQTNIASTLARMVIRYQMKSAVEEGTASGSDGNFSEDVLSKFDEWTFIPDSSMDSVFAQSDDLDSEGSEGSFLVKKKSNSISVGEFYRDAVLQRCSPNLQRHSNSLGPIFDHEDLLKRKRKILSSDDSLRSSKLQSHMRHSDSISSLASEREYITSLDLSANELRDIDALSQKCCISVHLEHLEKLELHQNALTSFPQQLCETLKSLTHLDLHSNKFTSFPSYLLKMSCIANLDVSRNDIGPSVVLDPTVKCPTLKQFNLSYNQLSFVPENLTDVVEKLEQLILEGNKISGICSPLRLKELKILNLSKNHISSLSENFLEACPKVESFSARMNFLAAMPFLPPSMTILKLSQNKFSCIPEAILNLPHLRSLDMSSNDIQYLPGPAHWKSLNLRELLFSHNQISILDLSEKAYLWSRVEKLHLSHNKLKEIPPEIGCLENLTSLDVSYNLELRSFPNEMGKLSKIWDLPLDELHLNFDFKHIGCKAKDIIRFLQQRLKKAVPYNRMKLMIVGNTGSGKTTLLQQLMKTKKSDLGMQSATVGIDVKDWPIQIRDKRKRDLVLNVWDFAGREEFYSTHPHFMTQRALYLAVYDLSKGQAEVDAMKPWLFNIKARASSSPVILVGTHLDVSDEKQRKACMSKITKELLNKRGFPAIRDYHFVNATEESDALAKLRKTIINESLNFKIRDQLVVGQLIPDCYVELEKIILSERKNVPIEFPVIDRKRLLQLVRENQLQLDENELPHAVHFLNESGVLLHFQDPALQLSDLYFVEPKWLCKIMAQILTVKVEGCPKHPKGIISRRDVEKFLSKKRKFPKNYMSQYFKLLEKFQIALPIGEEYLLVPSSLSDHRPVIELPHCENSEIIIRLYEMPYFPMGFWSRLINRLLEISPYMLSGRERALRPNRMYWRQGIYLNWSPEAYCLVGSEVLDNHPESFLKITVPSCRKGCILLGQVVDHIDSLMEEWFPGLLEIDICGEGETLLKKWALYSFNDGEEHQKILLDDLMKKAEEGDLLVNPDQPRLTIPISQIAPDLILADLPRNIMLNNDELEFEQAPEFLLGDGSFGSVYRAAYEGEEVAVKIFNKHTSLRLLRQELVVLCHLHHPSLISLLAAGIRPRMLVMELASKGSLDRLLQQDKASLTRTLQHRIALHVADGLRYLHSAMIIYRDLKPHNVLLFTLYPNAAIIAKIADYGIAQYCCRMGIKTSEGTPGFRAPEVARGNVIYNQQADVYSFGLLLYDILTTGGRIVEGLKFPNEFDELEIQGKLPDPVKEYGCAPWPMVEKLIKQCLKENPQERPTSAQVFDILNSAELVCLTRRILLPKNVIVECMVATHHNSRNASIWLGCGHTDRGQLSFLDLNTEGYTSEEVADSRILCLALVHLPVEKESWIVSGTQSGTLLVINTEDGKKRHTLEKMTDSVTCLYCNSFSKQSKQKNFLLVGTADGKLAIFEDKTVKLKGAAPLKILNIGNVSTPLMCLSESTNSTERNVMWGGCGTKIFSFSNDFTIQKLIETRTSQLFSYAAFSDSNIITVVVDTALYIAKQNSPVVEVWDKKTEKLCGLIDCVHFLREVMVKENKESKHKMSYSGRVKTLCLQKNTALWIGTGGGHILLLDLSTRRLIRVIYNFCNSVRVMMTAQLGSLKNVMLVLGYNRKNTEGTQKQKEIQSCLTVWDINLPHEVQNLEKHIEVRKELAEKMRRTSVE
T2 sequence (Q5S007 whole entry G2019S): as the sequence (Q5S007 whole entry) above, with G2019S counted along it
amyloid beta (Aβ), sequence (P05067 672-713 limits assumed): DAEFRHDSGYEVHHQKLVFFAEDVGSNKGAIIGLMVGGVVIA

Structure (SMILES): C[N+](C)(C)C[C@H](O)CC(=O)[O-] [L-carnitine]
- protection from toxicity induced by B10 (rats [1]): protected

Structure (SMILES): CCCC(C(=O)OCCN(CC)CC)(c1ccccc1)c1ccccc1.Cl [SKF-525A, 2-diethylaminoethyl-2,2-diphenylvalerate-Hcl]
- protective effect by route of administration (rats [1]; oral vs ip administration of the pre-treatment agent): only occurred upon oral administration
- protection from toxicity induced by B10 (rats [1]): lessened toxicity

Structure (SMILES): CCOc1ccc2c(c1)C(C)=CC(C)(C)N2 [ethoxyquin]
- protection from toxicity induced by B10 (rats [1]): protects

Structure (SMILES): Oc1c(Cl)cc(Cl)c(Cl)c1Cc1c(O)c(Cl)cc(Cl)c1Cl [hexachlorophene, Hexachlorophene]
- overexpressed wild-type LRRK2 level ([2]; HeLa cells, 1 μM, 24 hours, vs vehicle DMSO control): selectively reduces; also recorded: decreased
- period of maximal effect on LRRK2 levels ([2]; cell line not stated (HeLa and N9 cells used)): 24 h
- overexpressed mutant (G2019S) LRRK2 level (mutant (G2019S) LRRK2): selectively reduces; also recorded: decreased
- effect on synuclein (synuclein): does not affect
- endogenous pLRRK2 level (endogenous LRRK2 protein): reduces
- expression of endogenous LRRK2 (endogenous LRRK2 protein): reduces
- cell death (LDH release) (HeLa cells): minimal amounts of cell death
- cell death (LDH release) (N9 cells): minimal amounts of cell death
- LD50 (rats [3]): 66 mg/kg
- brain permeability [4]: 50%
- effect on Wnt-β-catenin signaling pathway [5]: inhibit
- effect on Aβ fibril formation (amyloid beta (Aβ)): inhibit
- protection from Aβ-induced toxicity [6]: protect

Structure (SMILES): CC1=C(CO)C(=O)O[C@@H]([C@@H](C)[C@H]2CC[C@H]3[C@@H]4C[C@H]5O[C@]56[C@@H](O)C=CC(=O)[C@]6(C)[C@H]4CC[C@]23C)C1 [withaferin A]
- clearance of LRRK2 (LRRK2; WA in the presence of celastrol, additive manner): enhanced
- LRRK2 levels in cells (LRRK2; compound alone, dose and time dependent manner): reduced
